According to ChEMBL document CHEMBL1153880, “Synthesis and adrenolytic activity of 1-(1H-indol-4-yloxy)-3-{[2-(2-methoxyphenoxy)ethyl]amino}propan-2-ol and its enantiomers. Part 1” (Eur J Med Chem, 2009):
Activity calls are given as the source filed them. The rule behind the calls is not given here.

Columns and labels:
[1] = tested on: Rattus norvegicus; experiment: Hypotensive activity in anaesthetized normotensive Wistar rat assessed as decrease in diastolic pressure at 0.625 mg/kg, iv administered as single dose after 5 mins; assay type: functional; design: scale not given: the % may be the effect or the level left
[2] = tested on: Rattus norvegicus; experiment: Hypotensive activity in anaesthetized normotensive Wistar rat assessed as decrease in systolic pressure at 0.125 to 1 mg/kg, iv administered as single dose after 5 mins; assay type: functional; design: scale not given: the % may be the effect or the level left; conditions: dose mg/kg 0.125-1
[3] = tested on: Rattus norvegicus; experiment: Hypotensive activity in anaesthetized normotensive Wistar rat assessed as decrease in systolic pressure at 0.625 mg/kg, po administered as single dose after 5 mins; assay type: functional, organism-based; design: dose 0.625 mg/kg
[4] = tested on: Rattus norvegicus; experiment: Hypotensive activity in anaesthetized normotensive Wistar rat assessed as reduction in norepinephrine induced pressor response at 1 mg/kg, iv after 5 mins; assay type: functional, organism-based; design: dose 1 mg/kg
[5] = biological target: T1, Adrenergic receptor alpha-1 (Rattus norvegicus, UniProt P15823+P23944+P43140); experiment: Displacement of [3H]prazosin from alpha1 adrenergic receptor in rat cerebral cortex by liquid scintillation method; assay type: tissue-based
T1 sequence (P15823 whole entry): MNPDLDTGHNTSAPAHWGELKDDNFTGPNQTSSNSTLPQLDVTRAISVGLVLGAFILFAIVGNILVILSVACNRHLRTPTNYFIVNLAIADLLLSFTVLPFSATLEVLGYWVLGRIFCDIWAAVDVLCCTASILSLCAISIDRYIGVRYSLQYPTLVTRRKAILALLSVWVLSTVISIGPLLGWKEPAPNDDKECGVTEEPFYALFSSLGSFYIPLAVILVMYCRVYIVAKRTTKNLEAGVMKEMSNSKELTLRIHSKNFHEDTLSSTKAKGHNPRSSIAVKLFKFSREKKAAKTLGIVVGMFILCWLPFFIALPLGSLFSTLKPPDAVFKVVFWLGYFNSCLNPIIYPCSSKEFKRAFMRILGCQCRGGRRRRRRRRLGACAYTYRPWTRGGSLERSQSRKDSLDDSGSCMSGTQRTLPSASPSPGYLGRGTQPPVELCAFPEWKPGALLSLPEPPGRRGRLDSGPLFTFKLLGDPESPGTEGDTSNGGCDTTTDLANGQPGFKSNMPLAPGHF
T1 sequence (P23944 whole entry): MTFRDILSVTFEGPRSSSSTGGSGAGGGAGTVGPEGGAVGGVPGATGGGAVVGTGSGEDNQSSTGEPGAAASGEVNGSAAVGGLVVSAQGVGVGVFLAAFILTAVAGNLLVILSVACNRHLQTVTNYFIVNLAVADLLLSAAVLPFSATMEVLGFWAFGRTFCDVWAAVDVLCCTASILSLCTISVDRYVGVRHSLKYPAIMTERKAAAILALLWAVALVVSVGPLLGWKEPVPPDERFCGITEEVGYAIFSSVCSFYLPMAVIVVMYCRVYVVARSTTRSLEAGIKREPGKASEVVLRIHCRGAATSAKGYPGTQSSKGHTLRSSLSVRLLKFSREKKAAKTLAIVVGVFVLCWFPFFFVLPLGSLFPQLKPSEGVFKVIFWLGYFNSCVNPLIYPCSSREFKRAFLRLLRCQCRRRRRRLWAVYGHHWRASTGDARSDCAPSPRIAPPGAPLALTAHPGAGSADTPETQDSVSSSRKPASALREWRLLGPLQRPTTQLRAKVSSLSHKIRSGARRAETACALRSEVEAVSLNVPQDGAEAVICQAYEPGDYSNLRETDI
T1 sequence (P43140 whole entry): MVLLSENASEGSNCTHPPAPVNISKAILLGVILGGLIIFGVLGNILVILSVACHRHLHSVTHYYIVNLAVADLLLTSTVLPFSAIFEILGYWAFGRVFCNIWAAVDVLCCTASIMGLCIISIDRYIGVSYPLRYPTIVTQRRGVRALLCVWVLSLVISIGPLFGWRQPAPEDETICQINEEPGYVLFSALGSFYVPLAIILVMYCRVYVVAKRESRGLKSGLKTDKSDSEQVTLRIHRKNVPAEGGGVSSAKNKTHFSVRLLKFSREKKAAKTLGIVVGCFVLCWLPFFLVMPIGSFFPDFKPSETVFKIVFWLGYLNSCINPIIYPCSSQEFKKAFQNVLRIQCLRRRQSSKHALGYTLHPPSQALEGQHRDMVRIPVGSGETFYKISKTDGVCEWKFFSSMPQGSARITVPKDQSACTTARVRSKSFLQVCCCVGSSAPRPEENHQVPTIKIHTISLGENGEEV

[6] = tested on: Rattus norvegicus; experiment: Hypotensive activity in anaesthetized normotensive Wistar rat assessed as decrease in systolic pressure at 0.625 mg/kg, iv administered as single dose after 5 mins; assay type: functional; design: scale not given: the % may be the effect or the level left
[7] = tested on: Rattus norvegicus; experiment: Hypotensive activity in anaesthetized normotensive Wistar rat assessed as decrease in diastolic pressure at 0.125 to 1 mg/kg, iv administered as single dose after 5 mins; assay type: functional; design: scale not given: the % may be the effect or the level left; conditions: dose mg/kg 0.125-1
[8] = tested on: Rattus norvegicus; experiment: Hypotensive activity in anaesthetized normotensive Wistar rat assessed as decrease in diastolic pressure at 0.625 mg/kg, po administered as single dose after 5 mins; assay type: functional, organism-based; design: dose 0.625 mg/kg
[9] = tested on: Rattus norvegicus; experiment: Effect on electrocardiogram in anaesthetized Wistar rat assessed as change in QRS interval at 1 mg/kg, iv after 15 mins by electrocardiography; assay type: functional
[10] = Decrease in amplitude of contraction in rabbit intestine at 10 uM after 5 mins; assay type: functional, Oryctolagus cuniculus; design: scale not given: the % may be the effect or the level left
[11] = tested on: Rattus norvegicus; experiment: Hypotensive activity in anaesthetized normotensive Wistar rat assessed as decrease in diastolic pressure at 0.125 to 1 mg/kg, po administered as single dose after 5 mins; assay type: functional, organism-based
[12] = tested on: Rattus norvegicus; experiment: Hypotensive activity in anaesthetized normotensive Wistar rat assessed as decrease in diastolic pressure at 0.25 to 1 mg/kg, iv administered as single dose after 5 mins; assay type: functional; design: scale not given: the % may be the effect or the level left; conditions: dose mg/kg 0.25-1
[13] = tested on: Rattus norvegicus; experiment: Hypotensive activity in anaesthetized normotensive Wistar rat assessed as decrease in systolic pressure at 0.25 to 1 mg/kg, iv administered as single dose after 5 mins; assay type: functional; design: scale not given: the % may be the effect or the level left; conditions: dose mg/kg 0.25-1
[14] = Increase in frequency of contraction in rabbit intestine at 1 nM after 5 mins; assay type: functional, Oryctolagus cuniculus
[15] = tested on: Rattus norvegicus; experiment: Hypotensive activity in anaesthetized normotensive Wistar rat assessed as decrease in systolic pressure at 0.125 to 1 mg/kg, po administered as single dose after 5 mins; assay type: functional, organism-based
[16] = tested on: Rattus norvegicus; experiment: Hypotensive activity in po dosed anaesthetized normotensive Wistar rat assessed as decrease in diastolic pressure administered as single dose after 5 mins; assay type: functional, organism-based
[17] = tested on: Rattus norvegicus; experiment: Hypotensive activity in po dosed anaesthetized normotensive Wistar rat assessed as decrease in systolic pressure administered as single dose after 5 mins; assay type: functional, organism-based

SMILES | Activity [1] [%] | Activity [2] [%] | Activity [3] | Activity [4] | Ki [5] [nM] | Activity [6] [%] | Activity [7] [%] | Activity [8] | Activity [9] [ms] | Activity [10] [%] | Activity [11] | Activity [12] [%] | Activity [13] [%] | Activity [14] [%] | Activity [15] | Activity [16] | Activity [17]
COc1ccccc1OCCNC[C@H](O)COc1cccc2[nH]ccc12 | 8 | 15 | Active | Active | 56.7 | 8 | 14 | Active | 22.7 |  |  |  |  |  |  |  | 
COc1ccccc1OCCNCC(O)COc1cccc2[nH]ccc12 (racemic) |  |  |  | Active | 89.8 |  |  |  | 26.9 | 29 | Active | 10 | 10 | 8 | Active |  | 
COc1ccccc1OCCNC[C@@H](O)COc1cccc2[nH]ccc12 |  |  |  |  | 88.3 |  |  |  | 21.7 | 31 |  |  |  |  |  | inactive | inactive
